ChEMBL document CHEMBL1126795, “Amesergide and structurally related nor-D-ergolines: 5HT2 receptor interactions in the rat” (J Med Chem, 1993)

Assay: Concentration required to inhibit pressor response to serotonin after 15 min i.v. administration of compound mediated via activation of vascular 5-HT2 receptors in rat
Format: functional, organism-based

Concentration [mg/kg] | Structure (SMILES)
1 | CCCn1cc2c3c(cccc31)C[C@@H](N(C)CCC(=O)NC1CCCCC1)C2
1 | CN(CCC(=O)NC1CCCCC1)[C@H]1Cc2cccc3[nH]cc(c23)C1
1 | CN(CCC(=O)NC1CCCCC1)[C@@H]1Cc2cccc3[nH]cc(c23)C1
